From ChEMBL document CHEMBL1148857, “In vitro and in vivo profile of 5-[(4'-trifluoromethyl-biphenyl-2-carbonyl)-amino]-1H-indole-2-carboxylic acid benzylmethyl carbamoylamide (dirlotapide), a novel potent MTP inhibitor for obesity” (Bioorg Med Chem Lett, 2007)
Activity calls are given as the source filed them. The rule behind the calls is not given here.

Assays:
[1] = Tmax in Beagle dog at 5 mg/kg, po; format: ADME, organism-based, Canis lupus familiaris; set-up: dose 5 mg/kg, route oral; conditions: in vivo
[2] = Half life in rat at 5 mg/kg, iv; format: ADME, organism-based; set-up: dose 5 mg/kg, route intravenous; conditions: in vivo
[3] = target: Cytochrome P450 2D6 (Homo sapiens, UniProt P10635); assay: Inhibition of CYP2D6; format: ADME
[4] = Permeability from basolateral to apical side of the Caco-2 cell membrane at 10 uM in presence of calcium; format: ADME, cell-based; conditions: human
[5] = test system: CYP2D6; assay: Metabolic stability in human liver microsome at 0.5 uM in presence of 5 uM CYP2D6 inhibitor quinidine; format: ADME; conditions: liver microsomes, with 5 uM quinidine (CYP2D6 inhibitor)
[6] = target: Cytochrome P450 2C9 (Homo sapiens, UniProt P11712); assay: Inhibition of CYP2C9; format: ADME
[7] = AUC (0 to t) in monkey at 0.5 mg/kg, iv; format: ADME, organism-based, Macaca mulatta; set-up: dose 0.5 mg/kg, route intravenous; conditions: rhesus monkey, plasma
[8] = Bioavailability in Beagle dog at 5 mg/kg, po; format: ADME, organism-based, Canis lupus familiaris; conditions: in vivo
[9] = target: Glucocorticoid receptor (Homo sapiens) (UniProt P04150); assay: Inhibition of glucocorticoid receptor at 1 uM
[10] = target: 5-hydroxytryptamine receptor 4 (Homo sapiens) (UniProt Q13639); assay: Inhibition of 5HT4 receptor at 1 uM
[11] = Half life in rat at 1 mg/kg, iv; format: ADME, organism-based; set-up: dose 1 mg/kg, route intravenous; conditions: in vivo
[12] = AUC (0 to t) in Beagle dog at 1 mg/kg, iv; format: ADME, organism-based, Canis lupus familiaris; set-up: dose 1 mg/kg, route intravenous; conditions: plasma
[13] = test system: Plasma; assay: Percentage unbound ligand in human blood at 0.2 uM; format: ADME, cell-free
[14] = Cmax in rat at 3 mg/kg, po; format: ADME, organism-based; set-up: dose 3 mg/kg, route oral; conditions: in vivo
[15] = target: Muscarinic acetylcholine receptor M1 (Homo sapiens) (UniProt P11229); assay: Inhibition of muscarinic M1 receptor at 1 uM
Sequence of Muscarinic acetylcholine receptor M1 (Homo sapiens) (P11229 whole entry): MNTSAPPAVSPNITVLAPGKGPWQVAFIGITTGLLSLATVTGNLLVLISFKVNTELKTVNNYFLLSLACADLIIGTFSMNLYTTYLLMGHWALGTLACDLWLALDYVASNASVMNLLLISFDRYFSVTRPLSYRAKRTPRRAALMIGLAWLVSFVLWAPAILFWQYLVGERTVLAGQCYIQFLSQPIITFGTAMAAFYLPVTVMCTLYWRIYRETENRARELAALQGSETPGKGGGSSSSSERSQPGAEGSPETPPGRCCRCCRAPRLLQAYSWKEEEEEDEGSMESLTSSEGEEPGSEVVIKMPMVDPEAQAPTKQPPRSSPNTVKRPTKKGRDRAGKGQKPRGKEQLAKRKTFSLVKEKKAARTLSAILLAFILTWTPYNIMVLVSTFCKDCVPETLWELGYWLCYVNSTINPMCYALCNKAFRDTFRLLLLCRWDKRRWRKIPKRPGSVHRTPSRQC

[16] = Volume of distribution at steady state in monkey at 0.5 mg/kg, iv; format: ADME, organism-based, Macaca mulatta; set-up: dose 0.5 mg/kg, route intravenous; conditions: rhesus monkey, in vivo, read-out: Vdss
[17] = target: Histamine H2 receptor (Homo sapiens) (UniProt P25021); assay: Inhibition of histamine H2 receptor at 1 uM
[18] = species: Homo sapiens; assay: Inhibition of tachykinin receptor at 1 uM
[19] = Half life in rat at 3 mg/kg, po; format: ADME, organism-based; set-up: dose 3 mg/kg, route oral; conditions: in vivo
[20] = target: 5-hydroxytryptamine receptor 2C (Homo sapiens) (UniProt P28335); assay: Inhibition of 5HT2C receptor at 1 uM
Sequence of 5-hydroxytryptamine receptor 2C (Homo sapiens) (P28335 whole entry): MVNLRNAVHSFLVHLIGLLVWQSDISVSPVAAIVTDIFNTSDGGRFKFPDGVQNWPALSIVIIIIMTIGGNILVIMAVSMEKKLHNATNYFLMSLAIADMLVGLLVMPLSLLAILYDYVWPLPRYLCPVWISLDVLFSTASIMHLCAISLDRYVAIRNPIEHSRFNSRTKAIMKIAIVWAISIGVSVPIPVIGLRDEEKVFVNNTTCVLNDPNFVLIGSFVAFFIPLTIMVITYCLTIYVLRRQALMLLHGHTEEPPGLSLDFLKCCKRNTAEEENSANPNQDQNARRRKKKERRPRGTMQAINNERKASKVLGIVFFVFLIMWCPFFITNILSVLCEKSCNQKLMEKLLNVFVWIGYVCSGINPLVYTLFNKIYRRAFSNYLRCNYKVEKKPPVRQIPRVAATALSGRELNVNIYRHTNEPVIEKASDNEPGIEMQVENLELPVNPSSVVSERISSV

[21] = target: Beta-2 adrenergic receptor (Homo sapiens) (UniProt P07550); assay: Inhibition of adrenergic b2 receptor at 1 uM
[22] = target: Muscarinic acetylcholine receptor M3 (Homo sapiens) (UniProt P20309); assay: Inhibition of muscarinic M3 receptor at 1 uM
[23] = Plasma clearance in rat at 0.3 mg/kg, iv; format: ADME, organism-based; set-up: dose 0.3 mg/kg, route intravenous
[24] = test system: Plasma; assay: Percentage unbound ligand in monkey blood at 0.2 uM; format: ADME, cell-free, Macaca mulatta; conditions: rhesus monkey
[25] = target: Mu-type opioid receptor (Homo sapiens) (UniProt P35372); assay: Inhibition of mu opioid receptor at 1 uM
[26] = target: Serotonin 3 (5-HT3) receptor (Homo sapiens) (UniProt P46098+A5X5Y0+O95264+Q70Z44+Q8WXA8); assay: Inhibition of 5HT3 receptor at 1 uM; format: protein-complex assay
[27] = target: Muscarinic acetylcholine receptor M4 (Homo sapiens) (UniProt P08173); assay: Inhibition of muscarinic M4 receptor at 1 uM
[28] = AUC (0 to infinity) in Beagle dog at 1 mg/kg, iv; format: ADME, organism-based, Canis lupus familiaris; set-up: time infinity, dose 1 mg/kg, route intravenous; conditions: plasma
[29] = species: Homo sapiens; assay: Inhibition of neuronal nicotinic receptor at 1 uM
[30] = Intrinsic clearance in monkey microsomes; format: ADME, Macaca mulatta, Microsome; conditions: rhesus monkey
[31] = Half life in Beagle dog at 0.5 mg/kg, po; format: ADME, organism-based, Canis lupus familiaris; set-up: dose 0.5 mg/kg, route oral; conditions: in vivo
[32] = target: Kappa-type opioid receptor (Homo sapiens) (UniProt P41145); assay: Inhibition of kappa opioid receptor at 1 uM
Sequence of Kappa-type opioid receptor (Homo sapiens) (P41145 whole entry): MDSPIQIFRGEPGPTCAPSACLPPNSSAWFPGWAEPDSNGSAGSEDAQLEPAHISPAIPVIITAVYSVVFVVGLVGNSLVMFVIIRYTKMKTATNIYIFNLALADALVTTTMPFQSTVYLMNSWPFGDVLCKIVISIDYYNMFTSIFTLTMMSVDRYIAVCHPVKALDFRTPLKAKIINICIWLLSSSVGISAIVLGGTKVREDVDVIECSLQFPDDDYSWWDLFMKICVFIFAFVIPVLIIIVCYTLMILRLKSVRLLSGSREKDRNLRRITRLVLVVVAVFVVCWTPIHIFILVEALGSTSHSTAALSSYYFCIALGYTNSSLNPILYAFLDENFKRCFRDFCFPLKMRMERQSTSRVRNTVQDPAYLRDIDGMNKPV

[33] = species: Mus musculus; assay: Inhibition of intestinal MTP in mouse assessed as inhibition of intestinal fat absorption; format: functional
[34] = target: D(4) dopamine receptor (Homo sapiens) (UniProt P21917); assay: Inhibition of dopamine D4 receptor at 1 uM
Sequence of D(4) dopamine receptor (Homo sapiens) (P21917 whole entry): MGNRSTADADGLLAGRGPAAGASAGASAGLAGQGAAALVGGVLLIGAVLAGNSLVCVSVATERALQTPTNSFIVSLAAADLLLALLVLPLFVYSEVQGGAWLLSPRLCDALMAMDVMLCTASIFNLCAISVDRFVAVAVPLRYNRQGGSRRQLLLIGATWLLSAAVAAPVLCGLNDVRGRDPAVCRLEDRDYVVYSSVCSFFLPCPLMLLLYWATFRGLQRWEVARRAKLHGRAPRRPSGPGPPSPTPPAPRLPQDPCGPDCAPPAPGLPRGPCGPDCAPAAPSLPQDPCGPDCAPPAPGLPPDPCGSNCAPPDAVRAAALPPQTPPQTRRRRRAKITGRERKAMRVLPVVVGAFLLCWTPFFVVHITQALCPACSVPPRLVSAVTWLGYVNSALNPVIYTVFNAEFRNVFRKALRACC

[35] = Tmax in Beagle dog at 0.5 mg/kg, po; format: ADME, organism-based, Canis lupus familiaris; set-up: dose 0.5 mg/kg, route oral; conditions: in vivo
[36] = test system: Plasma; assay: Percentage unbound ligand in dog blood at 0.2 uM; format: ADME, cell-free, Canis lupus familiaris
[37] = Plasma clearance in Beagle dog at 0.5 mg/kg, iv; format: ADME, organism-based, Canis lupus familiaris; set-up: dose 0.5 mg/kg, route intravenous
[38] = Volume of distribution at steady state in rat at 0.3 mg/kg, iv; format: ADME, organism-based; set-up: dose 0.3 mg/kg, route intravenous; conditions: in vivo, read-out: Vdss
[39] = target: Type-1 angiotensin II receptor (Homo sapiens) (UniProt P30556); assay: Inhibition of AT1 receptor at 1 uM
Sequence of Type-1 angiotensin II receptor (Homo sapiens) (P30556 whole entry): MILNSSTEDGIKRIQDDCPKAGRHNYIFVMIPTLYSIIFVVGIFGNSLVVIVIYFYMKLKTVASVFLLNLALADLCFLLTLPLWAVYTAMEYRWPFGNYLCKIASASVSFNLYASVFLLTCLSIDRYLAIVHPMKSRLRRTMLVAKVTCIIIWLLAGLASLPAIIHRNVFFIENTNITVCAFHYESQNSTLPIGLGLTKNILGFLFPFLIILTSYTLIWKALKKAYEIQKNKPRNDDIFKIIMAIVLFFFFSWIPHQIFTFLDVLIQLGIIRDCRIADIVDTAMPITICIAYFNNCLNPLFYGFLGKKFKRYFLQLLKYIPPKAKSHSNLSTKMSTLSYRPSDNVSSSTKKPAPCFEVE

[40] = Metabolic stability in human liver microsome at 0.5 uM; format: ADME; conditions: liver microsomes
[41] = Ratio of drug level in blood to plasma in rat; format: ADME, cell-free; conditions: blood and plasma, read-out: BPR
[42] = target: Microsomal triglyceride transfer protein large subunit (Homo sapiens, UniProt P55157); assay: Inhibition of MTP assessed as inhibition of apoB secretion from human HepG2 cells; format: cell-based
Sequence of Microsomal triglyceride transfer protein large subunit (P55157 whole entry): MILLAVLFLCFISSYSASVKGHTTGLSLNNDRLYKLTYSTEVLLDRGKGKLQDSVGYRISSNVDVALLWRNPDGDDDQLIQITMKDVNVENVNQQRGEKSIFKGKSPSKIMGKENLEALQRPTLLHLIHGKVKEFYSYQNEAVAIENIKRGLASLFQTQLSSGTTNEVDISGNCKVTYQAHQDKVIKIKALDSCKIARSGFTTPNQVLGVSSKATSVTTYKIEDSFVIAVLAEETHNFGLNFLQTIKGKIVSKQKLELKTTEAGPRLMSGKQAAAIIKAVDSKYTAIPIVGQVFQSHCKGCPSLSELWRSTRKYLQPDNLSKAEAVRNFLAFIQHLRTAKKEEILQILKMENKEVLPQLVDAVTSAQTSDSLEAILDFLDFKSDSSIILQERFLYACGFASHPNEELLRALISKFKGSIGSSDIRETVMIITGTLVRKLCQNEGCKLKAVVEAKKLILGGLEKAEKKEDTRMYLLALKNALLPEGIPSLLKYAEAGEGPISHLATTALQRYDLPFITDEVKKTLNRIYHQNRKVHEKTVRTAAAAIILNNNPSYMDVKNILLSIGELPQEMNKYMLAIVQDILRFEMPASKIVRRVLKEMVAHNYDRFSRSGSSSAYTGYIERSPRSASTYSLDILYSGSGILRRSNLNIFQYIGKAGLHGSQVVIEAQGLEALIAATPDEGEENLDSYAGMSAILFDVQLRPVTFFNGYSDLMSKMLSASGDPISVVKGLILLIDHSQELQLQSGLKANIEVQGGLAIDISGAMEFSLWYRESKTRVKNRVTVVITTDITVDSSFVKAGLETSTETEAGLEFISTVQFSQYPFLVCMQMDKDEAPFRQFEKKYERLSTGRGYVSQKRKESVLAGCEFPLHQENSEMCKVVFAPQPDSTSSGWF

[43] = Volume of distribution at steady state in Beagle dog at 1 mg/kg, iv; format: ADME, organism-based, Canis lupus familiaris; set-up: dose 1 mg/kg, route intravenous; conditions: in vivo, read-out: Vdss
[44] = Tmax in portal cannulated Beagle dog at 1 mg/kg, po; format: ADME, organism-based, Canis lupus familiaris; set-up: dose 1 mg/kg, route oral; conditions: in vivo
[45] = target: Histamine H3 receptor (Homo sapiens) (UniProt Q9Y5N1); assay: Inhibition of histamine H3 receptor at 1 uM
Sequence of Histamine H3 receptor (Homo sapiens) (Q9Y5N1 whole entry): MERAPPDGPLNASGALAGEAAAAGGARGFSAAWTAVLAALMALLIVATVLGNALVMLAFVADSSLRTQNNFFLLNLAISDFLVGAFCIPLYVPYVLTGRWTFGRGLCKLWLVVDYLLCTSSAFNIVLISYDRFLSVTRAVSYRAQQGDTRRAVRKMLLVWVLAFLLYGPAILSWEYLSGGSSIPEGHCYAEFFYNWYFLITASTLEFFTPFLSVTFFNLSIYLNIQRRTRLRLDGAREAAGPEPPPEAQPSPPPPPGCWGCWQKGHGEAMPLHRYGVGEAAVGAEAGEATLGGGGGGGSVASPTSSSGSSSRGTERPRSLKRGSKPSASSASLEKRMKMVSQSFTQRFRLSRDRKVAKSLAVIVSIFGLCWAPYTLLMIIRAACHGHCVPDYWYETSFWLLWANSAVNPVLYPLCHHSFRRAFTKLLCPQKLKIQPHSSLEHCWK

[46] = target: Melanocortin receptor 4 (Homo sapiens) (UniProt P32245); assay: Inhibition of melanocortin MC4 receptor at 1 uM
[47] = AUC (0 to t) in rat at 0.3 mg/kg, iv; format: ADME, organism-based; set-up: dose 0.3 mg/kg, route intravenous; conditions: plasma
[48] = target: Adenosine receptor A2a (Homo sapiens) (UniProt P29274); assay: Inhibition of adenosine A2a receptor at 1 uM
Sequence of Adenosine receptor A2a (Homo sapiens) (P29274 whole entry): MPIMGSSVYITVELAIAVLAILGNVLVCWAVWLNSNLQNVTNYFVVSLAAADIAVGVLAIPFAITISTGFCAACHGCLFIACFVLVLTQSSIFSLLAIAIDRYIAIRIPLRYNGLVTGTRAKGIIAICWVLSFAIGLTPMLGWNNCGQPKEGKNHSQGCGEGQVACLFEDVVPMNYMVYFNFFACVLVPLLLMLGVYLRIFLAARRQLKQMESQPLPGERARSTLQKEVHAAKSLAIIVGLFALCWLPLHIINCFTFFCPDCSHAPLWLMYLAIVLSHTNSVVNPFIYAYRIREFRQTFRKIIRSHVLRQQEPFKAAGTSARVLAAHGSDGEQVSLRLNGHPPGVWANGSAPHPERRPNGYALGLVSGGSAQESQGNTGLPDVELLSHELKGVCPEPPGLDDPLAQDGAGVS

[49] = target: D(1A) dopamine receptor (Homo sapiens) (UniProt P21728); assay: Inhibition of dopamine D1 receptor at 1 uM
[50] = species: Homo sapiens; assay: Inhibition of NMDA receptor at 1 uM
[51] = target: 5-hydroxytryptamine receptor 2A (Homo sapiens) (UniProt P28223); assay: Inhibition of 5HT2A receptor at 1 uM
Sequence of 5-hydroxytryptamine receptor 2A (Homo sapiens) (P28223 whole entry): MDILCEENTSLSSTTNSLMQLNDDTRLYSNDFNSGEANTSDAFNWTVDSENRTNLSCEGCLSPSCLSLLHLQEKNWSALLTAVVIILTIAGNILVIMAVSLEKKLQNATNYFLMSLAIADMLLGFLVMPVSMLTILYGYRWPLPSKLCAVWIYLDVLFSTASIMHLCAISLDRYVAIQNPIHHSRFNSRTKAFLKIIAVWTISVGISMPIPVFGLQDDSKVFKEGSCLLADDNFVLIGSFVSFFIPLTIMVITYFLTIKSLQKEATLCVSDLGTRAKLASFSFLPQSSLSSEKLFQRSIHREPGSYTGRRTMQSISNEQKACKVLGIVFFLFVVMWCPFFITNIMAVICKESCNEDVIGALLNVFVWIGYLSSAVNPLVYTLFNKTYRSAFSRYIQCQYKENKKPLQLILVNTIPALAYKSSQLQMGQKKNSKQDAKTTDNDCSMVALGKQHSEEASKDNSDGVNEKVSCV

[52] = AUC (0 to infinity) in portal cannulated Beagle dog at 1 mg/kg, po; format: ADME, organism-based, Canis lupus familiaris; set-up: time infinity, dose 1 mg/kg, route oral; conditions: plasma
[53] = target: D(3) dopamine receptor (Homo sapiens) (UniProt P35462); assay: Inhibition of dopamine D3 receptor at 1 uM
Sequence of D(3) dopamine receptor (Homo sapiens) (P35462 whole entry): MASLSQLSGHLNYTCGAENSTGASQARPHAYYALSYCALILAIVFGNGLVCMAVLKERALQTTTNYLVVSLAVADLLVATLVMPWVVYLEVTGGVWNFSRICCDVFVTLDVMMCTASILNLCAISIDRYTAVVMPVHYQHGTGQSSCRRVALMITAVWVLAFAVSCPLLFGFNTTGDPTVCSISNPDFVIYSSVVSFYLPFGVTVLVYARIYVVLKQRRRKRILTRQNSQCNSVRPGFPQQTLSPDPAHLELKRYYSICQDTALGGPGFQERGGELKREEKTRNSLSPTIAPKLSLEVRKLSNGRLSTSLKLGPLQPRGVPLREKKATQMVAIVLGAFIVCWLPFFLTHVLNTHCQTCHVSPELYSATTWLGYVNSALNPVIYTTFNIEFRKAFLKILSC

[54] = target: D(2) dopamine receptor (Homo sapiens) (UniProt P14416); assay: Inhibition of dopamine D2 receptor at 1 uM
[55] = test system: CYP1A2; assay: Metabolic stability in human liver microsome at 0.5 uM in presence of 5 uM CYP1A2 inhibitor furafylline; format: ADME; conditions: liver microsomes, with 5 uM furafylline (CYP1A2 inhibitor)
[56] = Cmax in Beagle dog at 5 mg/kg, po; format: ADME, organism-based, Canis lupus familiaris; set-up: dose 5 mg/kg, route oral; conditions: in vivo
[57] = Tmax in rat at 3 mg/kg, po; format: ADME, organism-based; set-up: dose 3 mg/kg, route oral; conditions: in vivo
[58] = Intrinsic clearance in dog microsomes; format: ADME, Canis lupus familiaris, Liver, Microsome
[59] = AUC (0 to infinity) in rat at 1 mg/kg, iv; format: ADME, organism-based; set-up: time infinity, dose 1 mg/kg, route intravenous; conditions: plasma
[60] = species: Homo sapiens; assay: Inhibition of kainate receptor at 1 uM

`CN(Cc1ccccc1)C(=O)[C@@H](NC(=O)c1cc2cc(NC(=O)c3ccccc3-c3ccc(C(F)(F)F)cc3)ccc2n1C)c1ccccc1` [DIRLOTAPIDE] gave a Tmax [1] of 3 h, a half-life [2] of 11.3 h and an IC50 [3] greater than 30 µM. For the same compound, the Papp B→A at 10 µM [4] was 0.3 ×10⁻⁶ cm/s, the half-life at 0.5 µM [5] was 0.6 h and the IC50 [6] was greater than 30 µM. The AUC(0-t) [7] was 684 ng·h/mL, the bioavailability [8] was 12% and the Activity [9] was “inactive”. For the same compound, the Activity [10] was “inactive”, the half-life [11] was 5.8 h and the AUC(0-t) [12] was 3260 ng·h/mL. The Fu [13] was 0.0097%, the Cmax [14] was 4.7 ng/mL and the Activity [15] was “inactive”. The Vd [16] was 2.2 L/kg, the Activity [17] was “inactive” and the Activity [18] was “inactive”. For the same compound, the half-life [19] was 6.3 h, the Activity [20] was “inactive” and the Activity [21] was “inactive”. For the same compound, the Activity [22] was “inactive”, the clearance [23] was 92 mL/min/kg and the Fu [24] was 0.026%. For the same compound, the Activity [25] was “inactive”, the Activity [26] was “inactive” and the Activity [27] was “inactive”. The AUC(0-inf) [28] was 3610 ng·h/mL, the Activity [29] was “inactive” and the CLint scaled [30] was 835 mL/min/kg. The half-life [31] was 14.1 h, the Activity [32] was “inactive” and the ED25 [33] was 0.16 mg/kg. For the same compound, the Activity [34] was “inactive”, the Tmax [35] was 3 h and the Fu [36] was 0.0088%. The clearance [37] was 5.5 mL/min/kg, the Vd [38] was 11 L/kg and the Activity [39] was “inactive”. It also gave a half-life at 0.5 µM [40] of 0.8 h, a blood plasma ratio [41] of 0.64 and an IC50 [42] of 0.0029 µM. The Vd [43] was 1 L/kg, the Tmax [44] was 6.3 h and the Activity [45] was “inactive”. For the same compound, the Activity [46] was “inactive”, the AUC(0-t) [47] was 51 ng·h/mL and the Activity [48] was “inactive”. For the same compound, the Activity [49] was “inactive”, the Activity [50] was “inactive” and the Activity [51] was “inactive”. For the same compound, the AUC(0-inf) [52] was 289 ng·h/mL, the Activity [53] was “inactive” and the Activity [54] was “inactive”. It also gave a half-life at 0.5 µM [55] of 0.75 h, a Cmax [56] of 250 ng/mL and a Tmax [57] of 2.1 h. For the same compound, the CLint scaled [58] was 1090 mL/min/kg, the AUC(0-inf) [59] was 530 ng·h/mL and the Activity [60] was “inactive”.
